Source: patent US20250129086A1, “COMPOUND FOR DEGRADING EGFR PROTEIN AND USE THEREOF” (TYK MEDICINES, INC., priority 2021, published 2025)

Columns and labels:
Type in all cases: cell-based, human
[1] = test system: H1975 (EGFR L858R/T790M double mutation); assay: Cell antiproliferative assay (CTG, 72 h), H1975; conditions: Table 2, H1975 cells
Description: (§1) Test Example 1 Cell Antiproliferative Assay
(§2) H1975: with EGFR: L858R/T790M double mutation; PC-9 with EGFR exon 19 deletion, HCC827 with exon 19 deletion mutation. CellCounting-Lite2.0, Trypsin EDTA, 37° C. CO2 incubator, cell counter, EnVision Serial No.1050454. II. Experimental preparation:
(§3) • (A) Trypsin EDTA was used to digest log-phase cells, medium was added to terminate the reaction, and a cell suspension was made by blowing and mixing with a pipette. • (B) Cell concentration was determined using Vi-cell, and a suspension of 15,000-25,000 cells per milliliter was made depending on the purpose of the experiment and the characteristics of the cells. • (C) After the cell suspension was prepared, it was gently mixed and 100 microliters per well was added so that the density of cells to be tested was 1500-2500 per well.
(§4) • (A) About 2 mg of compound was weighed, and the volume of DMSO required was calculated according to the formula: compound mass (mg)*compound purity (%)/compound molecular weight*1000 • (B) The inoculated cell culture plates were incubated in an incubator and the compounds with concentration gradient were added after about 24 hours. • (C)10 Mm of compound stock solution was diluted to […] with medium, and 50 Mm of compound solution was added sequentially to the second column of the deep-well plate, and […] of medium containing 0.5% DMSO was added to the third to eleventh columns. • (D) Gradient dilution: 125 μl of solution was pipetted from the second column and added to the third column, after mixing; another 125 μl of solution was pipetted from the third column and added to the fourth column, and the operation was repeated until the tenth column. • (E)25 μl of compound was pipetted from the deep-well plate into a 96-well culture plate using a multichannel pipette, and each compound was repeated three times on the 96-well plate. A maximum concentration of 10,000 nm with concentration gradient of 1:4 was eventually formed on the 96-well plate.
(§5) • (A)96-well plates were incubated in an incubator for 72 h. The effect of the compounds was observed under an inverted microscope. • (B)25 μl of CTG solution was added to each well, the plate was put on shaker for 10 minutes and the […] of each well was read.
(§6) The cell viability rate (% Cell Viability) was calculated using the following formula: • % Cell Viability=100%×(Lum_Sample-Lum_LC)/(Lum_HC-Lum_LC) • Lum_HC: Cell reading of 0.1% DMSO control • Lum_Sample: Cell reading with compound added • Lum_LC: Reading of Blank media • IC50 values were obtained by curve fitting with GraphPad Prism 8 software.

[2] = test system: PC-9 (EGFR exon 19 deletion); assay: Cell antiproliferative assay (CTG, 72 h), PC-9; conditions: Table 2, PC-9 cells
Description: as §1, §2, §3, §4, §5, §6

[3] = test system: HCC827 (exon 19 deletion mutation); assay: Cell antiproliferative assay (CTG, 72 h), HCC827; conditions: Table 2, HCC827 cells
Description: as §1, §2, §3, §4, §5, §6

Row | SMILES | IC50 ([1]; Homo sapiens, NCI-H1975, 72 h) | IC50 ([2]; Homo sapiens, PC-9, 72 h) | IC50 ([3]; Homo sapiens, HCC827, 72 h) | further results
1 | COc1cc(N2CCN(C(=O)CN3CCC(c4ccc(NC5CCC(=O)NC5=O)cc4)CC3)CC2)ccc1Nc1ncc(Cl)c(Nc2cccc(F)c2)n1 (stereo not drawn) [Compound T-09] | 10 to 100 nM | ≥ 1000 nM | ≥ 1000 nM | –
2 | COc1cc(N2CCN(C(=O)CN3CCC(c4ccc(NC5CCC(=O)NC5=O)cc4)CC3)CC2)ccc1Nc1ncc(C(F)(F)F)c(Nc2ccccc2P(C)(C)=O)n1 (stereo not drawn) [Compound T-46] | 10 to 100 nM | ≥ 1000 nM | 100 to 1000 nM | –
3 | COc1cc(N2CCN(C(=O)CN3CCC(c4ccc(NC5CCC(=O)NC5=O)cc4)CC3)CC2)ccc1Nc1ncc(C(F)(F)F)c(Nc2ccc(F)cc2)n1 (stereo not drawn) [Compound T-51] | 10 to 100 nM | ≥ 1000 nM | – | IC50 [3]: ≥ 1000 nM
4 | COc1cc(N2CCN(C(=O)CN3CCC(c4ccc(NC5CCC(=O)NC5=O)cc4)CC3)CC2)ccc1Nc1ncc(C(F)(F)F)c(Nc2ccc(F)cc2)n1 (stereo not drawn) [Compound T-52] | – | – | – | IC50 [1]: 10 to 100 nM; IC50 [2]: ≥ 1000 nM; IC50 [3]: 100 to 1000 nM
5 | COc1cc(C2CCN(C(=O)CN3CCC(c4ccc(NC5CCC(=O)NC5=O)cc4)CC3)CC2)ccc1Nc1ncc(Cl)c(Nc2ccccc2C(C)=O)n1 (stereo not drawn) [Compound T-69] | – | – | – | IC50 [1]: 100 to 1000 nM; IC50 [2]: 100 to 1000 nM; IC50 [3]: 100 to 1000 nM
6 | COc1cc(N2CCN(C(=O)CN3CCC(c4ccc(NC5CCC(=O)NC5=O)nc4)CC3)CC2)ccc1Nc1ncc(Cl)c(Nc2ccccc2C(C)=O)n1 (stereo not drawn) [Compound T-100] | 100 to 1000 nM | 100 to 1000 nM | 100 to 1000 nM | –
7 | COc1cc(N2CCN(C(=O)CN3CCN(c4ccc5c(c4)CN(C4CCC(=O)NC4=O)C5=O)CC3)CC2)ccc1Nc1ncc(Cl)c(Nc2ccccc2C(C)=O)n1 (stereo not drawn) [Compound T-109] | 100 to 1000 nM | ≥ 1000 nM | ≥ 1000 nM | –
8 | COc1cc(N2CCN(C(=O)CN3CCC(c4ccc(NC5CCC(=O)NC5=O)cc4)CC3)CC2)c(C)cc1Nc1ncc(Cl)c(Nc2ccccc2)n1 (stereo not drawn) [Compound T-122] | 100 to 1000 nM | 100 to 1000 nM | 100 to 1000 nM | –
9 | COc1cc(N2CCN(C(=O)CN3CCC(c4ccc(NC5CCC(=O)NC5=O)cc4)CC3)CC2)ccc1Nc1ncc(C(F)(F)F)c(-c2cn(C)c3ccccc23)n1 (stereo not drawn) [Compound T-135] | 100 to 1000 nM | ≥ 1000 nM | 100 to 1000 nM | –
10 | COc1cc(N2CCN(CCCN3CCC(c4ccc(NC5CCC(=O)NC5=O)cc4)CC3)CC2)ccc1Nc1ncc(Cl)c(Nc2ccccc2C(C)=O)n1 (stereo not drawn) [Compound T-183] | 100 to 1000 nM | – | – | –
11 | COC(=O)c1ccccc1Nc1nc(Nc2ccc(N3CCN(C(=O)CN4CCC(c5ccc(NC6CCC(=O)NC6=O)cc5)CC4)CC3)cc2OC)ncc1Cl (stereo not drawn) [Compound T-194] | 100 to 1000 nM | – | – | –
12 | COc1cc(N2CCN(C(=O)CN3CCN(c4ccc5c(c4)C(=O)N(C4CCC(=O)NC4=O)C5=O)CC3)CC2)ccc1Nc1ncc(Cl)c(Nc2ccccc2C(C)=O)n1 (stereo not drawn) [Compound T-201] | 100 to 1000 nM | – | – | –
13 | COc1cc(N2CCN(C(=O)CNc3ccc4c(c3)C(=O)N(C3CCC(=O)NC3=O)C4=O)CC2)ccc1Nc1ncc(Cl)c(Nc2ccccc2C(C)=O)n1 (stereo not drawn) [Compound T-230] | 100 to 1000 nM | – | – | –
14 | COc1cc(N2CCN(CC(=O)NCCNc3cccc4c3C(=O)N(C3CCC(=O)NC3=O)C4=O)CC2)ccc1Nc1ncc(Cl)c(Nc2ccccc2C(C)=O)n1 (stereo not drawn) [Compound T-238] | 100 to 1000 nM | – | – | –
15 | CCc1cc(Nc2ncc(Br)c(Nc3ccccc3C(=O)NC)n2)c(OC)cc1N1CCN(C(=O)CN2CCC(c3ccc(NC4CCC(=O)NC4=O)cc3)CC2)CC1 (stereo not drawn) [Compound T-362] | 10 to 100 nM | – | – | –
16 | CNC(=O)c1ccccc1Nc1nc(Nc2cc(C)c(N3CCN(C(=O)CN4CCN(c5ccc(NC6CCC(=O)NC6=O)cc5)CC4)CC3)cc2OC)ncc1Cl (stereo not drawn) [Compound T-364] | 10 to 100 nM | – | – | –
17 | CCNC(=O)c1ccccc1Nc1nc(Nc2ccc(N3CCN(C(=O)CN4CCC(c5ccc(NC6CCC(=O)NC6=O)cc5)CC4)CC3)cc2OC)ncc1Br (stereo not drawn) [Compound T-374] | 10 to 100 nM | – | – | –
18 | CCc1cc(Nc2ncc(Cl)c(Nc3ccccc3C(=O)NC)n2)c(OC)cc1N1CCN(C(=O)CN2CCC(c3ccc(NC4CCC(=O)NC4=O)cc3)CC2)CC1 (stereo not drawn) [Compound T-375] | – | – | – | IC50 [1]: 10 to 100 nM
19 | CNC(=O)c1ccccc1Nc1nc(Nc2cc(CC(F)(F)F)c(N3CCN(C(=O)CN4CCC(c5ccc(NC6CCC(=O)NC6=O)cc5)CC4)CC3)cc2OC)ncc1Cl (stereo not drawn) [Compound T-377] | 10 to 100 nM | – | – | –
20 | CNC(=O)c1ccccc1Nc1nc(Nc2cc(CC(F)(F)F)c(N3CCN(C(=O)CN4CCC(c5ccc(NC6CCC(=O)NC6=O)cc5)CC4)CC3)cc2OC)ncc1Br (stereo not drawn) [Compound T-381] | 10 to 100 nM | – | – | –

Now from value to compound, other results behind:

Row | IC50 ([1]; Homo sapiens, NCI-H1975, 72 h) | IC50 ([2]; Homo sapiens, PC-9, 72 h) | IC50 ([3]; Homo sapiens, HCC827, 72 h) | SMILES | further results
21 | 10 to 100 nM | 100 to 1000 nM | 100 to 1000 nM | COc1cc(N2CCN(C(=O)CN3CCC(c4ccc(NC5CCC(=O)NC5=O)cc4)CC3)CC2)ccc1Nc1ncc(Cl)c(Nc2ccccc2)n1 (stereo not drawn) [Compound T-01] | –
22 | 10 to 100 nM | 100 to 1000 nM | ≥ 1000 nM | COc1cc(N2CCN(C(=O)CN3CCC(c4ccc(NC5CCC(=O)NC5=O)cc4)CC3)CC2)ccc1Nc1ncc(C(F)(F)F)c(Nc2ccccc2)n1 (stereo not drawn) [Compound T-02] | –
23 | 10 to 100 nM | 100 to 1000 nM | ≥ 1000 nM | COc1cc(N2CCN(C(=O)CN3CCC(c4ccc(NC5CCC(=O)NC5=O)cc4F)CC3)CC2)ccc1Nc1ncc(Cl)c(Nc2ccccc2)n1 (stereo not drawn) [Compound T-04] | –
24 | 10 to 100 nM | ≥ 1000 nM | ≥ 1000 nM | COc1cc(N2CCN(C(=O)CN3CCC(c4ccc5c(N6CCC(=O)NC6=O)nn(C)c5c4)CC3)CC2)ccc1Nc1ncc(Cl)c(Nc2ccccc2)n1 [Compound T-14] | –
25 | 10 to 100 nM | 100 to 1000 nM | 100 to 1000 nM | COc1cc(N2CCN(C(=O)CN3CCC(c4ccc(NC5CCC(=O)NC5=O)cc4)CC3)CC2)c(C)cc1Nc1ncc(C(F)(F)F)c(Nc2ccccc2C(C)=O)n1 (stereo not drawn) [Compound T-58] | –
26 | 10 to 100 nM | 100 to 1000 nM | 100 to 1000 nM | COc1cc(N2CCN(C(=O)CN3CCC(c4ccc(NC5CCC(=O)NC5=O)cc4)CC3)CC2)c(C)cc1Nc1ncc(Br)c(Nc2ccccc2C(C)=O)n1 (stereo not drawn) [Compound T-59] | –
27 | 100 to 1000 nM | ≥ 1000 nM | ≥ 1000 nM | COc1cc(N2CCN(C(=O)CN3CCN(c4ccc(NC5CCC(=O)NC5=O)cc4)CC3)CC2)ccc1Nc1ncc(Cl)c(Nc2ccccc2C(C)=O)n1 (stereo not drawn) [Compound T-82] | –
28 | 100 to 1000 nM | ≥ 1000 nM | ≥ 1000 nM | COc1cc(N2CCN(C(=O)CN3CCC(c4ccc(NC5CCC(=O)NC5=O)cc4)CC3)C(C)C2)ccc1Nc1ncc(Cl)c(Nc2ccccc2)n1 (stereo not drawn) [Compound T-124] | –
29 | 100 to 1000 nM | ≥ 1000 nM | 100 to 1000 nM | COc1cc(N2CCN(C(=O)CN3CCC(c4ccc(NC5CCC(=O)NC5=O)cc4)CC3)CC2)ccc1Nc1ncc(Cl)c(Nc2cc(F)ccc2F)n1 (stereo not drawn) [Compound T-132] | –
30 | 10 to 100 nM | ≥ 1000 nM | ≥ 1000 nM | COc1cc(N2CCN(C(=O)CN3CCC(c4ccc(NC5CCC(=O)NC5=O)cc4)CC3)CC2)ccc1Nc1ncc(Cl)c(Nc2cccc(C#N)c2)n1 (stereo not drawn) [Compound T-134] | –
31 | 100 to 1000 nM | – | – | COc1cc(N2CCN(C(=O)C3CCN(CC4CCN(c5ccc6c(c5)C(=O)N(C5CCC(=O)NC5=O)C6=O)CC4)CC3)CC2)ccc1Nc1ncc(Cl)c(Nc2ccccc2C(C)=O)n1 (stereo not drawn) [Compound T-204] | –
32 | 100 to 1000 nM | – | – | COc1nc(N2CCN(C(=O)CN3CCC(c4ccc(NC5CCC(=O)NC5=O)cc4)CC3)CC2)ccc1Nc1ncc(Cl)c(Nc2ccccc2C(C)=O)n1 (stereo not drawn) [Compound T-208] | –
33 | 100 to 1000 nM | – | – | COc1cc(N2CCN(C(=O)CN3CCC(c4ccc5c(cnn5C5CCC(=O)NC5=O)c4)CC3)CC2)ccc1Nc1ncc(Cl)c(Nc2ccccc2)n1 (stereo not drawn) [Compound T-326] | –
34 | 100 to 1000 nM | – | – | COC(=O)Nc1ccccc1Nc1nc(Nc2ccc(N3CCN(C(=O)CN4CCC(c5ccc(NC6CCC(=O)NC6=O)cc5)CC4)CC3)cc2OC)ncc1Cl (stereo not drawn) [Compound T-340] | –
35 | 10 to 100 nM | – | – | CCc1cc(Nc2ncc(Cl)c(Nc3ccccc3C(=O)NC)n2)c(OC)cc1N1CCN(C(=O)CN2CCC(c3ccc(NC4CCC(=O)NC4=O)cc3)CC2)CC1 (stereo not drawn) [Compound T-361] | –
36 | 10 to 100 nM | – | – | CCc1cc(Nc2ncc(C(F)(F)F)c(Nc3ccccc3C(=O)NC)n2)c(OC)cc1N1CCN(C(=O)CN2CCC(c3ccc(NC4CCC(=O)NC4=O)cc3)CC2)CC1 (stereo not drawn) [Compound T-363] | –
37 | 10 to 100 nM | – | – | CCc1cc(Nc2ncc(Cl)c(Nc3ccccc3C(C)=O)n2)c(OC)cc1N1CCN(C(=O)CN2CCC(c3ccc(NC4CCC(=O)NC4=O)cc3)CC2)CC1 (stereo not drawn) [Compound T-378] | –
